# Where a SMILES comes first, the peptide text is derived from it. The star is where a group is joined. Cbz = O=C(OCc1ccccc1)*; CH2F = FC*
# What was measured:
# Format in all cases: cell-based, Chinese Hamster
# [1] = tested on: Aβ production in CHO cells overexpressing APP751 and PS1 WT; assay: Secreted Aβ ELISA in CHO cells overexpressing APP751 and PS1 during induced apoptosis
# Method: We examined Aβ generation induced by apoptosis in CHO cell lines. We used CHO cell lines stably overexpressing both APP751 and PS1 WT. For the induction of apoptosis, we used 1 μM staurosporine (STS) in serum free media. Secreted Aβ was measured in the conditioned media of cells treated with STS for 6 hrs using a sensitive ELISA assay [courtesy of Dr. Dennis Selkoe; M. S. Wolfe et al., Nature 398, 513-7 (1999)].
# Treatment with either STS for 6 hrs or etoposide for 12 hrs induced from 10 to 20% of cell death assayed by MTT assay, which is a colorimetric short-term suspension culture assay in which the yellow tetrazolium salt (MTT) is reduced in metabolically active cells to form insoluble purple formazan crystals, which are solubilized by the addition of a detergent.
# Chinese Hamster Ovary (CHO) cells expressing APP751 and BACE (CAB), CHO cells expressing full-length APP and wild-type PS1 (CHO-APP751/PS1) or expressing C99 and wild-type PS1 (CHO-CC99/PS1), H4 human neuroglioma cells expressing APP751 (H4-APP751), mouse embryonic fibroblast (MEF), embryonic stem (ES) cells, and human epithelial A431 cells were grown as described previously (Marambaud, P. et al., Embo J 21, 1948-56 (2002); Cai, H. et al., Nat Neurosci 4, 233-4 (2001); Sato, N. et al., Nat Cell Biol 2, 863-70 (2000); Puglielli, L., Ellis, B. C., Saunders, A. J. & Kovacs, D. M., J Biol Chem 278, 19777-83 (2003); Wolfe, M. S. et al., Nature 398, 513-7 (1999)). For the induction of apoptosis, we used staurosporine or etoposide (Calbiochem (EMD Biosciences, San Diego, Calif.)). For Aβ measurements, cells were seeded at the density of 0.5×10^6 cells per well in 6 well plates. After 48 hours, cells were treated with either STS (1 μM) for 6 hours. […] For time-course experiments, cells were seeded at the density of 2×10^6 cells per 100 mm dish and treated with STS (1 μM) or etoposide (100 μg/mL). At different time points (0, 3, 6, 9, 12 and 24 hours), the cells were scraped, centrifuged and then lysed in buffer containing 1% NP40. Western blot analysis was performed as previously described (Tesco, G., Koh, Y. H. & Tanzi, R. E., J Biol Chem 278, 46074-80 (2003)). Densitometry analysis was performed on a Macintosh computer using the public domain NIH Image program (developed at the U.S. National Institutes of Health and available on the Internet at http://rsb.info.nih.gov/nih-image/).
# Secreted Aβ1-total was measured in the conditioned media of untreated cells or of cells treated with STS or STS plus zVAD using a sensitive ELISA (Wolfe, M. S. et al., Nature 398, 513-7 (1999). At least three different experiments were carried out and each experiment was performed at least in triplicate.
# [2] = tested on: CHO cells overexpressing APP751 and PS1 WT; assay: Induction of apoptosis (caspase 3 activation, TUNEL); conditions: STS 1 μM, after 6 hrs
# BACE [3] = assay: BACE protein levels by Western blot in CHO cells overexpressing APP751 and PS1WT
# Source text: We examined whether the apoptosis-mediated increase in Aβ generation was associated with changes in the levels and activities of BACE and β-secretase. […] In addition, upregulation of BACE occured also in H4 human neuroglioma (FIG. 3B) and in BACE+/+ mouse fibroblasts (FIG. 3C). BACE−/− mouse fibroblasts were used to show the specificity of the antibody used to detect BACE (FIG. 3C).
# Chinese Hamster Ovary (CHO) cells expressing APP751 and BACE (CAB), CHO cells expressing full-length APP and wild-type PS1 (CHO-APP751/PS1) or expressing C99 and wild-type PS1 (CHO-CC99/PS1), H4 human neuroglioma cells expressing APP751 (H4-APP751), mouse embryonic fibroblast (MEF), embryonic stem (ES) cells, and human epithelial A431 cells were grown as described previously (Marambaud, P. et al., Embo J 21, 1948-56 (2002); Cai, H. et al., Nat Neurosci 4, 233-4 (2001); Sato, N. et al., Nat Cell Biol 2, 863-70 (2000); Puglielli, L., Ellis, B. C., Saunders, A. J. & Kovacs, D. M., J Biol Chem 278, 19777-83 (2003); Wolfe, M. S. et al., Nature 398, 513-7 (1999)). For the induction of apoptosis, we used staurosporine or etoposide (Calbiochem (EMD Biosciences, San Diego, Calif.)). For Aβ measurements, cells were seeded at the density of 0.5×10^6 cells per well in 6 well plates. After 48 hours, cells were treated with either STS (1 μM) for 6 hours. […]
# BACE [4] = assay: BACE protein levels by Western blot and densitometry in CAB cells
# Method: Chinese Hamster Ovary (CHO) cells expressing APP751 and BACE (CAB), CHO cells expressing full-length APP and wild-type PS1 (CHO-APP751/PS1) or expressing C99 and wild-type PS1 (CHO-CC99/PS1), H4 human neuroglioma cells expressing APP751 (H4-APP751), mouse embryonic fibroblast (MEF), embryonic stem (ES) cells, and human epithelial A431 cells were grown as described previously (Marambaud, P. et al., Embo J 21, 1948-56 (2002); Cai, H. et al., Nat Neurosci 4, 233-4 (2001); Sato, N. et al., Nat Cell Biol 2, 863-70 (2000); Puglielli, L., Ellis, B. C., Saunders, A. J. & Kovacs, D. M., J Biol Chem 278, 19777-83 (2003); Wolfe, M. S. et al., Nature 398, 513-7 (1999)). For the induction of apoptosis, we used staurosporine or etoposide (Calbiochem (EMD Biosciences, San Diego, Calif.)). For Aβ measurements, cells were seeded at the density of 0.5×10^6 cells per well in 6 well plates. After 48 hours, cells were treated with either STS (1 μM) for 6 hours. In order to inhibit caspase activation a sister plate of cells was pre-treated with zVAD ([…], Enzyme Systems Products) for 1 hour before STS treatment. For time-course experiments, cells were seeded at the density of 2×10^6 cells per 100 mm dish and treated with STS (1 μM) or etoposide (100 μg/mL). At different time points (0, 3, 6, 9, 12 and 24 hours), the cells were scraped, centrifuged and then lysed in buffer containing 1% NP40. Western blot analysis was performed as previously described (Tesco, G., Koh, Y. H. & Tanzi, R. E., J Biol Chem 278, 46074-80 (2003)). Densitometry analysis was performed on a Macintosh computer using the public domain NIH Image program (developed at the U.S. National Institutes of Health and available on the Internet at http://rsb.info.nih.gov/nih-image/).
# It has been previously shown that overexpression of BACE enhances β-secretase cleavage of APP leading to the accumulation of intracellular C99 (Vassar, R. et al., Science 286, 735-41 (1999)). We first asked whether apoptosis/caspase activation leads to accumulation of C99 owing to increased β-secretase activity.
# [5] = 1 μM STS in serum free media, 6 hrs, p<0.05 t-test
# [6] = etoposide 100 μg/mL + 200 μM zVAD, 12 hrs, compared to etoposide treated cells
# [7] = zVAD 200 μM pretreated 1 hr before STS, compared to STS-treated cells, p<0.05
Structure (SMILES),"Secreted Aβ1-42 [1, 5]","Secreted Aβtotal [1, 5]","Aβ1-total increase ([1]; STS-treated CHO-APP751/PS1 cells, 6 hours) [fold]","Apoptosis (caspase 3 activated, TUNEL positive) [2]",BACE protein levels (BACE [3]; after 24 hrs of STS treatment),"BACE protein levels increase (BACE [4]; after 6 hours or 24 hours of STS treatment, CAB cells) [fold]","Secreted Aβ42 [1, 6]","Secreted Aβtotal [1, 6]","Secreted Aβ1-42 [1, 7]","Secreted Aβtotal [1, 7]","BACE upregulation during STS-induced apoptosis (BACE [3]; zVAD 100 μM, all cell types (CHO, H4 human neuroglioma, BACE+/+ mouse fibroblasts))","BACE accumulation during STS-induced apoptosis (BACE [4]; zVAD, both CAB and H4-APP751 cells)"
"CN[C@@H]1C[C@H]2O[C@@](C)([C@@H]1OC)n1c3ccccc3c3c4c(c5c6ccccc6n2c5c31)C(=O)NC4 [STS, staurosporine]",significantly increased,significantly increased,~2.5,induced apoptosis,significant increase,~4,,,,,,
COC(=O)C[C@H](NC(=O)[C@H](C)NC(=O)[C@@H](NC(=O)OCc1ccccc1)C(C)C)C(=O)CF [zVAD] (Cbz-Val-Ala-Asp(OMe)-CH2F),,,,,,,significantly attenuate,significantly attenuate,significantly reduced,significantly reduced,prevented BACE upregulation,prevented BACE accumulation

# Source: patent US7326540B2, “Methods for identifying compounds that modulate stabilization of secretase-associated proteins” (priority 2003, dated 2008)
